The values that follow are results of earlier work, collected in the CATMoS acute toxicity set (Mansouri et al. 2021).

Where “and” joins values, the source holds several entries; their conditions need not be identical. Equal entries are not always repeated.

The nature of the data set: rat acute oral toxicity. As to conditions: in vivo.
For `CCNc1cccc(C)c1`, the LD50 – broadly, the dose expected to kill half of the subjects tested – was 580 mg/kg. `S=P(OCCCl)(OCCCl)OCCCl`: the LD50 is 820 mg/kg. With `CCCSP(=O)(OC)OC`, the LD50 was 9.4 mg/kg. In the case of `CC1(C)[C@H](C=C2CCCC2)[C@H]1C(=O)OCc1coc(Cc2ccccc2)c1`, the LD50 was 63 mg/kg.

Turning to `CCN(CC)C(=O)c1nnn(-c2ccccc2)c1C`, the LD50 is 500 mg/kg. Regarding `CCCCCCCCCCCCN(C)C`, the LD50 was 800 mg/kg. On to `O=[N+]([O-])c1cc(Cl)cc(-c2cc(Cl)cc([N+](=O)[O-])c2O)c1O`, for which the LD50 was 10 mg/kg. Regarding `CCCC(C(=O)OCCN(CC)CC)(c1ccccc1)c1ccccc1`, the LD50 was 2140 mg/kg. As for `CCOP(=S)(OC(C)C)ON1C(=O)c2ccccc2C1=O` (stereo not given), the LD50 is 250 mg/kg.

`CS(=O)(=O)c1ccc2nc(C(F)(F)F)[nH]c2c1`: the LD50 is 69 mg/kg. Consider `OCCOCCOCCN1CCN(C(c2ccccc2)c2ccc(Cl)cc2)CC1` (stereo not given), for which the LD50 is 920 mg/kg.

`CCOc1ccc([N+](=O)[O-])cc1CNCCBr`: the LD50 was 25 mg/kg. In the case of `CC(C(=O)O)c1ccc2oc3ccccc3c(=O)c2c1` (stereo not given), the LD50 is 720 mg/kg.

Regarding `N=C(O)CCC/N=C(\c1ccc(Cl)cc1)c1cc(F)ccc1O`, the LD50 was 1350 mg/kg. `CC(=O)OCC(COc1ccccc1)OC(C)=O` (stereo not given): the LD50 is 5250 mg/kg. On to `CC(=O)O[C@H]1C[C@@H]2CC[C@@H]3[C@H](CC[C@@]4(C)[C@H]3C[C@H]([N+]3(C)CCCCC3)[C@@H]4OC(C)=O)[C@@]2(C)C[C@@H]1[N+]1(C)CCCCC1`, for which the LD50 is 202 mg/kg. For `O=CCC=O`, the LD50 is 632 mg/kg. As to `CC(C)(O)c1ccccc1`, the LD50 was 1300 mg/kg.

Consider `CN(C)C(=S)N(C)C`, for which the LD50 was 920 mg/kg. Consider `CNC(=O)Oc1cccc2c1OC(C)(C)C2=O`, for which the LD50 is 295 mg/kg.

With `Cc1ccc2[nH]c(C(F)(F)F)nc2c1[N+](=O)[O-]`, the LD50 was 7.75 mg/kg.

`CCCCCCCCCc1cccc(OCCOCC(=O)O)c1`: the LD50 is 880 mg/kg. As to `CN1CCCCC1CCN1c2ccccc2Sc2ccc(Cl)cc21` (stereo not given), the LD50 is 1200 mg/kg. `Fc1cc(Cl)c2nc(C(F)(F)F)[nH]c2c1`: the LD50 was 1.98 mg/kg. For the compound `CC(=O)NC(=O)c1ccccc1O`, the LD50 is 1800 mg/kg.

As to `CCCCC(=O)c1ccc(N)cc1`, the LD50 is 84 mg/kg. Consider `C[C@H]1O[C@H](O[C@H]2[C@H](O)[C@@H](O)[C@@H](O)[C@H](O)[C@@H]2O)[C@@H](N)C[C@@H]1NC(=N)C(=O)O`, for which the LD50 was 22000 mg/kg and 11400 mg/kg. Consider `CC(C)(C)NCC(O)COc1ccccc1OCC1CCCO1` (stereo not given), for which the LD50 is 1090 mg/kg. With `Cc1ccc(C(=O)CC(=O)C(F)(F)F)cc1`, the LD50 is 300 mg/kg.

In the case of `Nc1ccc([N+](=O)[O-])cc1[N+](=O)[O-]`, the LD50 was 285 mg/kg. For `CC/C=C1/OC(=O)c2ccccc21`, the LD50 was 1650 mg/kg. On to `NCC(O)c1ccc(O)c(O)c1` (stereo not given), for which the median lethal dose (LD50) is 132 mg/kg.

`CCC(C)(C)N/C(N)=N/C#N`: the LD50 was 300 mg/kg. On to `CC12CCC3(CCCC(C)(C)C3C1)OC2=O` (stereo not given), for which the LD50 is 1600 mg/kg. `CS(=O)CC(=O)c1ccccn1` (stereo not given): the LD50 is 6550 mg/kg.

As to `O=C(O)c1cc(O)nc(O)n1`, the LD50 was 10900 mg/kg.

`COc1cc(C)nc(-n2nc(C)cc2OC)n1`: the LD50 is 445 mg/kg. As to `CCN(CC)CCSC(=O)C(c1ccccc1)c1ccccc1`, the LD50 was 2720 mg/kg. Consider `Cc1c(Cl)ccc(C(C)c2ccccc2)c1C` (stereo not given), for which the LD50 was 2130 mg/kg. Take `CCN(CC)NNCCCO`: the LD50 was 3730 mg/kg. Turning to `C=Cc1cccc(Cl)c1`, the LD50 was 5200 mg/kg.

Regarding `N#CC=Cc1ccccc1`, the LD50 is 4150 mg/kg. Regarding `CCN(Cc1ccncc1)C(=O)C(CO)c1ccccc1` (stereo not given), the LD50 is 865 mg/kg. `Cc1ccn(C(=O)NCCCCNC(=O)n2ccc(C)n2)n1`: the LD50 is 4600 mg/kg. As for `O=C(NC1CCN(CCc2c[nH]c3ccccc23)CC1)c1ccccc1`, the 50% lethal dose (LD50) was 1800 mg/kg. `CSC(=N)N`: the LD50 was 800 mg/kg.

`CC[C@@H]1C(=O)OC[C@@H]1Cc1cncn1C`: the median lethal dose (LD50) is 911 mg/kg and 402 mg/kg.

In the case of `CNC[C@H](O)c1ccc(O)c(O)c1`, the LD50 is 30 mg/kg and 24 mg/kg. Take `FC(F)(F)c1nc2c(Cl)c(Cl)ccc2[nH]1`: the LD50 was 13.1 mg/kg. For `Cc1ccccc1NC(=S)NN`, the LD50 is 200 mg/kg. With `CC1CNC(C)CN1` (stereo not given), the LD50 was 3160 mg/kg. As to `CC(=O)OCCCC(=O)CBr`, the LD50 was 600 mg/kg. Regarding `COP(=O)(CCC(=O)NCO)OC`, the LD50 was 13000 mg/kg. With `CN(C)C(CSC#N)CSC#N`, the LD50 is 125 mg/kg and 82 mg/kg. As to `CCC(C)C(CN(C)C)c1cc(F)ccc1OC` (stereo not given), the LD50 was 300 mg/kg. `C[C@@H]1C[C@H]2[C@@H]3C[C@H](F)C4=CC(=O)C=C[C@]4(C)[C@H]3[C@@H](O)C[C@]2(C)[C@H]1C(=O)CO`: the LD50 is 245 mg/kg. Regarding `CC(c1ccccc1)c1ccc(O)cc1O` (stereo not given), the LD50 was 500 mg/kg. Consider `Cc1ncc(CO)c(CN)c1O`, for which the LD50 was 7500 mg/kg. With `CCN(CC)C(=O)c1ccc(O)c(OC)c1`, the LD50 is 154 mg/kg. `Cc1ccc(N2C(=O)C=CC2=O)cc1N1C(=O)C=CC1=O`: the LD50 is 2400 mg/kg. Take `CCc1nc(N)nc(N)c1-c1ccc(Cl)cc1`: the LD50 was 440 mg/kg. Regarding `Cc1ccc(/C(=C\CN2CCCC2)c2ccccn2)cc1`, the LD50 was 840 mg/kg. `CCC(c1ccccc1)c1c(O)c2ccccc2oc1=O` (stereo not given): the LD50 is 200 mg/kg.

`S=c1[nH]c2ccccc2s1`: the LD50 is 631 mg/kg. `CCOC(=S)C=Cc1ccc([N+](=O)[O-])cc1`: the LD50 is 970 mg/kg. As for `CC(C)C(=O)N(C)C(=O)Oc1cccc(C(C)C)c1`, the LD50 was 631 mg/kg. As to `CC(C)NCC(O)COC(C)c1ccccc1` (stereo not given), the 50% lethal dose (LD50) is 540 mg/kg. As to `CCN(C)N=O`, the LD50 was 90 mg/kg.

Regarding `O=NN1CCCCCC1`, the median lethal dose (LD50) was 336 mg/kg. `CON=CC1=CCCNC1`: the LD50 is 12 mg/kg. As for `C=CC(=O)OCCOC(=O)C=C`, the LD50 is 300 mg/kg. As for `CC(C)c1ccc(NC(=O)N(C)C)cc1`, the LD50 is 1830 mg/kg. For the compound `CCCCCCCCCCCCOS(=O)(=O)O`, the LD50 was 1300 mg/kg. Regarding `Cc1ccc(S(=O)(=O)OCCCl)cc1`, the median lethal dose (LD50) is 498 mg/kg. Take `CCC(=O)OC(=O)CC`: the LD50 was 2360 mg/kg. On to `ClCC[N+]1(CCCCCC[N+]2(CCCl)CCCO2)CCCO1` (stereo not given), for which the LD50 was 30 mg/kg. In the case of `O=C(O)c1cccc2c(Cl)ccc(C(=O)O)c12`, the LD50 was 3500 mg/kg. With `CCC(CC)COCCOC(=O)CCCCC(=O)OCCOCC(CC)CC`, the LD50 is 3250 mg/kg. Turning to `Fc1c(Cl)ccc2[nH]c(C(F)(F)F)nc12`, the median lethal dose (LD50) was 5.72 mg/kg.

With `COc1ccc(NS(=O)(=O)c2ccc(N)cc2)nn1`, the LD50 was 2740 mg/kg. For the compound `O=C1NCC2(CCN(CCc3ccccc3)CC2)O1`, the LD50 was 980 mg/kg and 437 mg/kg.

As to `CC(C)OC(=O)COc1cc(Cl)c(Cl)cc1Cl`, the LD50 was 495 mg/kg. Regarding `CNC(=O)ON=C(CSC)C(C)(C)C`, the median lethal dose (LD50) is 8.5 mg/kg. In the case of `COP(=O)(OC)OC(=C(Br)Br)c1ccc(Cl)cc1Cl`, the LD50 is 180 mg/kg. For the compound `CC1(C)S[C@@H]2[C@H](NC(=O)C3(N)CCCCC3)C(=O)N2[C@H]1C(=O)O`, the LD50 was 5010 mg/kg. For `CC(C(=O)OCCOCCO)c1ccc2c(c1)C(=O)Cc1ccccc1O2` (stereo not given), the LD50 is 260 mg/kg.

As to `CCNc1nc(NC(C)(C)C)nc(SC)n1`, the LD50 was 2040 mg/kg. For the compound `CC(C)C(=O)OC(=O)C(C)C`, the LD50 was 7700 mg/kg. In the case of `C[N+]1(C)CCN(CC(O)(c2ccccc2)C2CCCCC2)CC1` (stereo not given), the median lethal dose (LD50) is 958 mg/kg. Turning to `COS(C)(=O)=O`, the LD50 is 225 mg/kg.
